Among the test systems are NCI-H460 lung; MDA-N; MDA-MB-435; UO-31 renal; ACHN renal; MDA-MB-231 breast; HCT-15 colon; HS 578T breast; TK-10 renal; LOX IMVI melanoma.
What all share (assay): NCI anticancer screen, dose series, 48 h

The values below come from PubChem BioAssay (NCI).

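96-well plates; 48 h exposure; 5 concentrations. Endpoints by linear interpolation between flanking doses. Not reached: highest tested concentration assigned. At the TGI there is no net growth.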 Where a SMILES comes first, the peptide text is derived from it. [ ]: non-standard residue; d: D form. pGlu = O=C1CC[CH](C(=O)O)N1

As to `O=C(O)CN(CC(=O)O)Cc1ccn(-c2cccc(-n3ccc(CN(CC(=O)O)CC(=O)O)n3)n2)n1`, the TGI in the experiment on NCI-H460 lung, in the experiment with MDA-N, with MDA-MB-435, with UO-31 renal, in the experiment on ACHN renal and in the experiment on MDA-MB-231 breast was over 100 µM throughout. Moreover, the TGI in the experiment with HCT-15 colon, in the experiment with HS 578T breast and in the experiment with TK-10 renal was over 100 µM each time.

Regarding `CCOC(=O)c1cn(CC)c2cc3c(cc2c1=O)CCS3(=O)=O`, the TGI in the experiment with NCI-H460 lung, in the experiment on MDA-N, in the experiment on MDA-MB-435, in the experiment with UO-31 renal, in the experiment on ACHN renal and with MDA-MB-231 breast was over 100 µM in each case. Moreover, the TGI in the experiment with HCT-15 colon, in the experiment on HS 578T breast and in the experiment with TK-10 renal was over 100 µM in each case.

Turning to `COc1cc2c(cc1OC(=O)c1cc3ccccc3[nH]1)N=C[C@@H]1CCCN1C2=O`, the TGI was 8.65 µM with NCI-H460 lung; 0.375 µM in the experiment with MDA-N; 1.19 µM in the experiment with MDA-MB-435; 13 µM in the experiment with ACHN renal; 2.88 µM in the experiment on MDA-MB-231 breast; over 34.2 µM in the experiment with HCT-15 colon. The TGI was over 100 µM in the experiment with HS 578T breast and 13.8 µM in the experiment on TK-10 renal.

Consider `CC1C2CC(CC2N)C1(C)C` (stereo not given), for which the TGI with NCI-H460 lung, in the experiment with MDA-N, in the experiment on MDA-MB-435, in the experiment with UO-31 renal, in the experiment with ACHN renal and with MDA-MB-231 breast was over 100 µM each time. Besides, the TGI with HS 578T breast and with TK-10 renal was over 100 µM throughout.

As to `CNC(=O)c1ccccc1[S+]1c2cccc3cccc(c23)C(=O)N1C` (stereo not given), the TGI in the experiment on MDA-N, in the experiment with MDA-MB-435, in the experiment with UO-31 renal, in the experiment on ACHN renal, in the experiment on MDA-MB-231 breast and in the experiment with HCT-15 colon was over 100 µM each time. Further, the TGI in the experiment on LOX IMVI melanoma, with HS 578T breast and with TK-10 renal was over 100 µM throughout.

Take `O=C(Cc1ccccc1)N=Nc1c(O)[nH]c2ccccc12`: the TGI in the experiment on NCI-H460 lung, in the experiment with MDA-N, with MDA-MB-435, in the experiment with UO-31 renal, in the experiment on ACHN renal and in the experiment on MDA-MB-231 breast was over 100 µM throughout. Further, the TGI in the experiment with HCT-15 colon, in the experiment with HS 578T breast and in the experiment with TK-10 renal was over 100 µM each time.

For the molecule `COC(=O)c1c(O)ccc2c1c1c(n2Cc2ccccn2)C(=O)c2ccccc2C1=O`, the TGI in the experiment with NCI-H460 lung was over 100 µM; in the experiment with MDA-N it was over 100 µM; with MDA-MB-435, over 100 µM; with UO-31 renal, over 100 µM; with ACHN renal, 58.1 µM; in the experiment with MDA-MB-231 breast it was over 100 µM. The TGI in the experiment with HCT-15 colon, in the experiment with HS 578T breast and with TK-10 renal was over 100 µM each time.

As to `COc1ccc(-c2nnc(-c3ccncc3)o2)cc1`, the TGI in the experiment with MDA-N, in the experiment on MDA-MB-435, with UO-31 renal, in the experiment on ACHN renal, in the experiment on MDA-MB-231 breast and in the experiment with HCT-15 colon was over 100 µM in each case. Moreover, the TGI with LOX IMVI melanoma, with HS 578T breast and in the experiment on TK-10 renal was over 100 µM each time.

With `O=S(=O)(O)c1cc(Nc2ccnc3ccccc23)c2c(S(=O)(=O)O)cc(S(=O)(=O)O)cc2c1`, the TGI in the experiment on NCI-H460 lung, with MDA-N, in the experiment on MDA-MB-435, with UO-31 renal, with MDA-MB-231 breast and in the experiment with HCT-15 colon was over 100 µM throughout. Moreover, the TGI in the experiment with LOX IMVI melanoma, in the experiment with HS 578T breast and in the experiment on TK-10 renal was over 100 µM in each case.

For `C=CCCC(On1c(-c2ccc(Cl)cc2)csc1=S)c1ccccc1` (stereo not given), the TGI in the experiment on MDA-N was 13.4 µM; with MDA-MB-435, over 100 µM; in the experiment with UO-31 renal, over 100 µM; in the experiment with ACHN renal, over 100 µM; in the experiment with MDA-MB-231 breast it was over 100 µM; in the experiment with HCT-15 colon it was over 100 µM. Besides, the TGI in the experiment on LOX IMVI melanoma, in the experiment on HS 578T breast and in the experiment on TK-10 renal was over 100 µM in each case.

Turning to `N#CCOc1cccc(C2(N3CC=CCC3)CCCCC2)c1`, the TGI with MDA-N, in the experiment on MDA-MB-435, in the experiment on UO-31 renal, in the experiment with ACHN renal, in the experiment on MDA-MB-231 breast and in the experiment on HCT-15 colon was over 100 µM in each case. Moreover, the TGI in the experiment with LOX IMVI melanoma, in the experiment on HS 578T breast and in the experiment with TK-10 renal was over 100 µM each time.

On to `CC(NC(=O)C(Cc1cnc[nH]1)NC(=O)C1CCC(=O)N1)C(N)=O` (stereo not drawn) ([pGlu]-His-Ala-NH2; configuration not given here), for which the TGI with NCI-H460 lung, in the experiment with MDA-N, in the experiment on MDA-MB-435, with UO-31 renal, with ACHN renal and with MDA-MB-231 breast was over 100 µM in each case. For the same molecule, the TGI in the experiment with LOX IMVI melanoma, in the experiment with HS 578T breast and with TK-10 renal was over 100 µM each time.

In the case of `COC(=O)c1c(O)ccc2c1c1c(n2Cc2ccccc2OC)C(=O)c2ccccc2C1`, the TGI in the experiment on NCI-H460 lung, in the experiment with MDA-N, in the experiment on MDA-MB-435, in the experiment on UO-31 renal, in the experiment with MDA-MB-231 breast and in the experiment with HCT-15 colon was over 100 µM in each case. Further, the TGI in the experiment with LOX IMVI melanoma, in the experiment with HS 578T breast and in the experiment with TK-10 renal was over 100 µM in each case.

As to `O=C1c2ccccc2-c2nnc(-c3ccc(Cl)cc3)cc21`, the TGI with NCI-H460 lung, in the experiment with MDA-N, with MDA-MB-435, in the experiment on UO-31 renal, in the experiment with ACHN renal and with MDA-MB-231 breast was over 10 µM throughout. Further, the TGI in the experiment on HCT-15 colon, in the experiment on LOX IMVI melanoma and in the experiment on HS 578T breast was over 10 µM each time.

With `CC1=Nc2c(C#N)ncn2N=C(C)C1`, the TGI in the experiment with NCI-H460 lung, in the experiment with MDA-N, in the experiment with MDA-MB-435, in the experiment on UO-31 renal, with ACHN renal and with MDA-MB-231 breast was over 100 µM each time. The TGI with LOX IMVI melanoma, in the experiment with HS 578T breast and with TK-10 renal was over 100 µM throughout.

As for `Cc1cc2c(cc1-c1cc3c(cc1C)C(C(C)C)=C(O)C(=O)/C3=C\Nc1c(C)n(C)n(-c3ccccc3)c1=O)/C(=C/Nc1c(C)n(C)n(-c3ccccc3)c1=O)C(=O)C(O)=C2C(C)C`, the TGI in the experiment on NCI-H460 lung, in the experiment on MDA-N, with MDA-MB-435, in the experiment on UO-31 renal, in the experiment with ACHN renal and with MDA-MB-231 breast was over 100 µM each time. Also, the TGI with HCT-15 colon and with HS 578T breast was over 100 µM throughout.

With `N#CCSc1c(-c2ccccc2)c(=O)n(-c2ccccc2)c(=S)n1-c1ccccc1`, the TGI with NCI-H460 lung, in the experiment with MDA-N, with MDA-MB-435, with UO-31 renal, in the experiment on ACHN renal and with HCT-15 colon was over 100 µM throughout. Besides, the TGI in the experiment on LOX IMVI melanoma, in the experiment on HS 578T breast and in the experiment with TK-10 renal was over 100 µM each time.

`COc1ccc(N2C(N)=C(C#N)C(C#N)(C#N)C2c2cccc([N+](=O)[O-])c2)cc1` (stereo not given): the TGI in the experiment with MDA-N was determined as 31.5 µM; in the experiment on MDA-MB-435, 31.9 µM; with UO-31 renal, 31.3 µM; with ACHN renal it was 27.4 µM; with MDA-MB-231 breast, 29.1 µM; in the experiment with HCT-15 colon, 30.3 µM. Further, the TGI in the experiment with LOX IMVI melanoma came to 27.6 µM; in the experiment with HS 578T breast it was 54.6 µM; in the experiment on TK-10 renal, 30.9 µM.

As for `CCCC(=O)Nc1cc(/C=C/C(=O)N2CC(CCl)c3c2cc([N+](=O)[O-])c2ccccc32)n(C)c1` (stereo not given), the TGI in the experiment on NCI-H460 lung, in the experiment with MDA-N, in the experiment on MDA-MB-435, in the experiment on UO-31 renal, in the experiment on ACHN renal and with MDA-MB-231 breast was over 100 µM each time. Moreover, the TGI with HCT-15 colon, in the experiment with HS 578T breast and in the experiment with TK-10 renal was over 100 µM in each case.

Regarding `CCOC(=O)C1=CC(C)(C(=O)OCC)Nc2c(nc(SC)n(C)c2=O)N1` (stereo not given), the TGI with NCI-H460 lung, in the experiment on MDA-N, in the experiment on MDA-MB-435, with UO-31 renal, with ACHN renal and in the experiment on MDA-MB-231 breast was over 10 µM in each case. Moreover, the TGI in the experiment on HCT-15 colon, with LOX IMVI melanoma and in the experiment on TK-10 renal was over 10 µM in each case.

In the case of `c1ccc(CCN2CCN=C2Cc2ccccc2)cc1`, the TGI in the experiment on NCI-H460 lung, in the experiment on MDA-N, in the experiment with UO-31 renal, with ACHN renal, in the experiment on MDA-MB-231 breast and in the experiment on HCT-15 colon was over 100 µM in each case. Moreover, the TGI in the experiment on LOX IMVI melanoma, in the experiment with HS 578T breast and in the experiment with TK-10 renal was over 100 µM each time.

Regarding `CCOC(=O)Cn1nnc2cc(Nc3nc4ccccc4nc3C(=O)OCC)ccc21`, the TGI is over 100 µM in the experiment on NCI-H460 lung; over 100 µM in the experiment on MDA-N; over 100 µM in the experiment on MDA-MB-435; 19.4 µM with UO-31 renal; over 100 µM with ACHN renal; over 100 µM with HCT-15 colon. The TGI in the experiment on LOX IMVI melanoma is over 100 µM; in the experiment with HS 578T breast, over 100 µM; in the experiment with TK-10 renal it was 59 µM.
